Data as given in patent US12612395B2, “Rocaglate derivatives and uses thereof” (TRUSTEES OF BOSTON UNIVERSITY, priority 2023, dated 2026).
Like-named read-outs stand apart in the source and are kept apart here.

How the values were obtained:
GBM0308 non-CSCs = test: Dose-response killing of GBM non-CSCs (PI/Hoechst, Celigo cytometer); type: cell-based; details: for Emax / EC50: Homo sapiens; for Emax / Non-CSCs Max. observed efficacy (% dead cells): 72 h; for Emax: read-out: Non-CSC Max. observed efficacy (% dead cells), Table 7, cell line not given; for EC50: read-out: Non-CSC EC50 (μM); for Non-CSCs Max. observed efficacy (% dead cells): Table 1, GBM0308 non-CSCs, up to 10 μM
Source text: (§1) The inventors first evaluated a cohort of seven rocaglate translation inhibitors (1, 3-7, and 9, FIG. 1A and Table 1, compounds 2 and 8 were not tested due to unavailability). To assay for compounds that selectively affect GBM CSCs, the inventors employed the patient-derived tumor-initiating cell (TIC) cell line […] that forms neurospheres (consisting exclusively of tumor-initiating cells or CSCs) when cultured in neurobasal (NBE) medium. Upon exposure to serum and growth factor withdrawal, however, the cell line differentiates, acquires a flattened morphology, and forms a non-CSC population.^20 Thus, compounds can be tested in parallel to assess their effect on GBM CSCs vs. GBM non-CSCs as separate populations with a clean and robust response. This approach has been previously used to perform RNAi-based genetic screens to identify modulators of CSCs.^20 In this study, GBM0308 cells, cultured in stem cell conditions to form CSCs or in medium containing serum to induce differentiation into a non-CSC population, were treated in parallel with compounds at varying doses. Three days post-treatment, propidium iodide (PI) and Hoechst staining were performed and quantified using a Celigo image cytometer. Hoechst dye stained all […] nucleated cells, while PI exclusively stained dead cells. Cell viability and the percentage of cell death were then determined.
(§2) Cell Culture: Glioblastoma stem cell lines GBM0308, BT145, and BT112 were cultured in neurobasal (NBE medium) containing N-2 and B-27 supplements, EGF, bFGF, L-glutamine, and Penicillin-Streptomycin), as described previously.^19 Adherent GBM cells were cultured in serum-containing DMEM media (Invitrogen) supplemented with 10% fetal bovine serum (Corning Cellgro™). Cells were incubated at 37° C. and 5% CO2 to allow neurosphere formation. For seeding and subculturing, the neurospheres were gently trypsinized with 0.025% trypsin to form a single-cell suspension.
(§3) Dose-Response Testing in GBM Cells: Briefly, on day 1, cells were seeded in triplicate. For CSCs, 1500 cells/well were plated in a low attachment 96-well plate with NBE media and incubated for 3 days at 37° C. and 5% CO2 to allow the formation of neurospheres. For non-CSCs, 3000 cells/well were plated in a 96-well plate with DMEM media supplemented with 10% FBS. Similarly, the assay plates were also incubated for the same duration. Compound treatments started on day 4. Each compound was resuspended in DMSO and then diluted to different concentrations in media to a final concentration of DMSO less than 1%. The compounds were added at concentrations of 10, 3.3, 1.11, 0.37, 0.12, 0.041, 0.013, and 0.004 µM, respectively. DMSO-treated cells served as a control. After 72 h incubation with the compounds, fluorescent stains, propidium iodide, and Hoechst 33342 (Life Technologies, Carlsbad, CA), were used to stain the GBM cells to determine cell viability. A staining solution in 1×PBS was prepared by mixing PI and Hoechst 33342 to working concentrations of 2.5 μM and 20 μM, respectively. 20 μL of this staining solution was added per well, and plates were incubated at 37° C. and 5% CO2 for 60 min. After incubation, plates were read by Celigo imaging cytometer using an inbuilt Celigo application; Cell Viability (Dead+Total). For the viability measurement, the total number of neurospheres/cells and dead neurospheres/cells in each well were counted by the cytometer. The percentage of PI+ cells was normalized to DMSO and plotted against the drug concentration to calculate the EC50 with a four-parameter, variable-slope dose-response curve with an upper constraint of <100% dead cells and a lower constraint of =0% dead cells (GraphPad Prism v.10.0.0). For all dose response experiments, the experimental maximal efficacy (maximum observed % cell death) is reported. Relative EC50 values are reported for all compounds killing >50% of cells.

GBM0308 CSCs = test: Dose-response killing of GBM CSCs (PI/Hoechst, Celigo cytometer); type: cell-based; details: for Emax / CSCs Max. observed efficacy (% dead cells): 72 h; for Emax: read-out: CSC Max. observed efficacy (% dead cells), Table 7; for CSCs Max. observed efficacy (% dead cells): up to 10 μM
Source text: as §1, §2, §3

GBM0308 neurospheres = test: Neurosphere formation assay (single neurosphere, PI/Hoechst); type: cell-based; details: 72 hours
Protocol: To gain additional mechanistic insights into GBM cell death induced by (−)-20, the inventors conducted several functional assays. The inventors first derived a single neurosphere from GBM0308 cells cultured in stem cell conditions, which was treated with either DMSO or (−)-20 at varying doses for three days followed by staining with PI and Hoechst dyes and subsequent imaging. […] To capture the kinetics of apoptotic events, the inventors employed caspase 3/7 staining of GBM0308 neurospheres treated with either DMSO or (−)-20 and subsequently evaluated at three timepoints over a 48-hour period. […] (FIG. 5B).
Neurosphere Formation Assays: Single neurospheres were generated by seeding GBM0308 cells (400 cells per well) in a 384-well ultra-low attachment round bottom microplate (Nexcelom Bioscience, ULA-384 U). The plates were then centrifuged at 300×g for 10 minutes to cluster cells at the bottom of the wells, followed by incubation at 37° C. and 5% CO2 for 4 days to allow the formation of single neurospheres and treated with either DMSO or drugs at concentrations of 3.3, 1.11, 0.37, 0.12, 0.041, 0.013, 0.004 μM. On Day 7, neurospheres were stained with propidium iodide and Hoechst, as described above. The “neurosphere 1+Mask” application was used to measure the fluorescent intensities of PI, using Celigo cytometer as described previously.^70

eIF4A paralogs (eIF4A1) = test: PISA assay in GBM0308 cell lysates, eIF4A; type: binding, human; details: GBM0308 lysate, compound 10 μM, AMP-PNP and (AG)8 RNA added
Source text: (§4) Derivatization-free target identification using a modified proteome integral solubility alteration (PISA) assay. The inventors next pursued proteome-wide target identification to better understand the target profiles of CSC-selective rocaglates. To enable cross-compound comparisons of target engagement, the inventors opted to use the Proteome Integral Solubility Alteration (PISA) assay,^29 a derivative of the mass spectrometry-based Cellular Thermal Shift Assay (MS-CETSA). In MS-CETSA,^30,31 target engagement is inferred through proteome-wide analysis of compound-induced changes to protein thermal stability; proteins with a shift in their half-maximal thermal denaturation temperature upon compound treatment are flagged as potential targets. The PISA assay obviates the need for MS-CETSA-derived thermal denaturation curves through curve integration by pooling of individual temperature points into a single “integral” sample for each treatment condition, thereby increasing throughput (FIG. 9). In contrast to MS-CETSA (which relies on curve comparisons), PISA determinations are performed by simply comparing soluble protein abundance levels between compound- and DMSO-treated samples. Importantly, protein fold-change measurements in PISA experiments generally scale with the thermal shift derived from CETSA experiments, and the magnitude of a thermal shift can inform on relative affinity between compounds and individual targets.^30,32-25 Maximal stability changes are protein-specific,^36 however, precluding estimations of preference for one target over another. Thus, PISA allows for simultaneous target profiling and comparisons of binding affinity between different compounds within a given target.
(§5) Of note, we also detected stabilization of DDX3Y, a paralog which shares >90% sequence similarity with DDX3X.
PISA assay in GBM0308 cell lysates: The PISA assay was performed in lysates as described by Gaetani and coworkers^S2 with slight modification. Pelleted GBM0308 cells were resuspended in ice-cold lysis buffer (1×PBS pH 7.4, 2 mM MgCl2, 0.5 mM AMP-PNP, 1 μM (AG)8 RNA, HALT protease inhibitor cocktail EDTA-free) and subjected to three freeze-thaw cycles with liquid nitrogen to extract lysate proteins. Thawing was performed at room temperature until ˜80% thawed, then completed on ice. Lysate was clarified by centrifugation for 10 minutes at 20,000 RCF and 4° C., transferred to a fresh Eppendorf tube, then centrifuged again for 10 minutes at 20,000 RCF and 4° C. to ensure removal of debris. Lysate concentration was determined using a Pierce BCA Protein Assay Kit and adjusted to 2.0 mg/mL in lysis buffer. Lysate was mixed 1:1 with a 2× solution of test compound or DMSO in lysis buffer, gently aspirated to ensure proper mixing, and incubated at room temperature for 10 minutes. […]

DDX3X = molecular target: T1, DDX3X (Homo sapiens, UniProt O00571); test: PISA assay in GBM0308 cell lysates, DDX3X; type: binding; details: GBM0308 lysate, compound 10 μM, AMP-PNP and (AG)8 RNA added
T1 construct: endogenous in cells; host or cells: GBM0308 glioblastoma stem cells (lysate)
T1 sequence (O00571 whole entry): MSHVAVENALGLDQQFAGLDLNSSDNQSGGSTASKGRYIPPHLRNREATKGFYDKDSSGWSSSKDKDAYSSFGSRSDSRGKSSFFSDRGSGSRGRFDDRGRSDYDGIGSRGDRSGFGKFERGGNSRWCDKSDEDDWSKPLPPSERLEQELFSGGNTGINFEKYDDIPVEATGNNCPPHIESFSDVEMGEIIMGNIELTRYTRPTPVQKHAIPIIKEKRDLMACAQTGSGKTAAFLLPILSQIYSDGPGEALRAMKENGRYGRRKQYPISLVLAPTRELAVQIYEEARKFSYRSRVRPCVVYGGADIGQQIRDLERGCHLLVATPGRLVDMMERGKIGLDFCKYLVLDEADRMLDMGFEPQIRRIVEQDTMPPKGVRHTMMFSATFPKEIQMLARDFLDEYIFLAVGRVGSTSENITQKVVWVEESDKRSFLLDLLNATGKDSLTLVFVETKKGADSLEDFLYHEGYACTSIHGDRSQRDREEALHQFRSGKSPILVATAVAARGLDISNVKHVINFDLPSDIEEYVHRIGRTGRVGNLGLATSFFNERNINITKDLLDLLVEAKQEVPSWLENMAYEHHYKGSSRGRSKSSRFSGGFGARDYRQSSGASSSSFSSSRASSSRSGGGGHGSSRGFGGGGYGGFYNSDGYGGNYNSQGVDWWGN
Source text: as §4, §5
PISA assay in GBM0308 cell lysates: The PISA assay was performed in lysates as described by Gaetani and coworkers^S2 with slight modification. […] Lysate concentration was determined using a Pierce BCA Protein Assay Kit and adjusted to 2.0 mg/mL in lysis buffer. […]

[1] = Homo sapiens, cell line not given
[2] = Homo sapiens, read-out: CSC EC50 (μM), Table 7, cell line not given
[3] = Table 1, GBM0308 CSCs, 72 h treatment, relative EC50, given for compounds causing at least 50% cell death, read-out: CSCs EC50

Compound	Emax (GBM0308 non-CSCs) [%]	Emax (GBM0308 CSCs; [1]) [%]	EC50 (GBM0308 CSCs; [2]) [µM]	Non-CSCs Max. observed efficacy (% dead cells) (GBM0308 non-CSCs) [%]	CSCs Max. observed efficacy (% dead cells) (GBM0308 CSCs; Table 1, GBM0308 CSCs) [%]	other results
CCN(CC)S(=O)(=O)NC(=O)[C@H]1[C@@H](O)[C@@]2(O)c3c(OC)cc(OC)cc3O[C@@]2(c2ccc(Br)cc2)[C@@H]1c1ccccc1 [ZW-12-35, (1R,2R,3S,3aR,8bS)-3a-(4-bromophenyl)-N—(N,N-diethylsulfamoyl)-1,8b-dihydroxy-6,8-dimethoxy-3-phenyl-2,3,3a,8b-tetrahydro-1H-cyclopenta[b]benzofuran-2-carboxamide]	16	92	1.18	–	–	–
COc1cc(OC)c2c(c1)O[C@@]1(c3ccc(Br)cc3)[C@H](c3ccccc3)[C@@H](C(=O)NS(=O)(=O)N3CC(C)C3)[C@@H](O)[C@@]21O [ZW-12-36, (1R,2R,3S,3aR,8bS)-3a-(4-bromophenyl)-1,8b-dihydroxy-6,8-dimethoxy-N-((3-methylazetidin-1-yl)sulfonyl)-3-phenyl-2,3,3a,8b-tetrahydro-1H-cyclopenta[b]benzofuran-2-carboxamide]	11	96	0.804	–	–	–
COc1cc(OC)c2c(c1)O[C@@]1(c3ccc(Br)cc3)[C@H](c3ccccc3)[C@@H](C(=O)NS(=O)(=O)N3CCCC3)[C@@H](O)[C@@]21O [ZW-12-37, (1R,2R,3S,3aR,8bS)-3a-(4-bromophenyl)-1,8b-dihydroxy-6,8-dimethoxy-3-phenyl-N-(pyrrolidin-1-ylsulfonyl)-2,3,3a,8b-tetrahydro-1H-cyclopenta[b]benzofuran-2-carboxamide]	25	95	0.7	–	–	EC50 (GBM0308 non-CSCs): 0.401 µM
COc1cc(OC)c2c(c1)O[C@@]1(c3ccc(Br)cc3)[C@H](c3ccccc3)[C@@H](C(=O)NS(=O)(=O)N3CCOCC3)[C@@H](O)[C@@]21O [ZW-12-38, (1R,2R,3S,3aR,8bS)-3a-(4-bromophenyl)-1,8b-dihydroxy-6,8-dimethoxy-N-(morpholinosulfonyl)-3-phenyl-2,3,3a,8b-tetrahydro-1H-cyclopenta[b]benzofuran-2-carboxamide]	19	95	0.7	–	–	EC50 (GBM0308 non-CSCs): 0.463 µM
RK-33 [reference compound]	–	–	–	–	–	concentration required to observe a noticeable effect on neurosphere size (GBM0308 neurospheres): > 3 µM
aglaroxin C [rac-4, reference compound]	–	–	–	26	42	CSCs Max. observed efficacy (% dead cells) (GBM0308 CSCs; Table 1, GBM0308 CSCs, listed as 4): ≤ 50%
methyl rocaglate [(−)-3, reference compound]	–	–	–	23	75	EC50 (GBM0308 CSCs; [3]): 1.64 µM
rocaglamide A [(−)-1, reference compound]	–	–	–	31	84	thermal stabilization of eIF4A paralogs (PISA), in words (eIF4A paralogs (eIF4A1)): thermal stabilization; thermal stabilization of DDX3X (PISA), in words (DDX3X): thermal stabilization; EC50 (GBM0308 CSCs; [3]): 0.387 µM
